Laboratory results taken from BindingDB's records for PubMed 1586393 (U. 109, 1992).
pKi: −log10 of the molar value.

target: D(3) dopamine receptor (Homo sapiens, UniProt P35462)
Sequence (P35462 as listed by the source): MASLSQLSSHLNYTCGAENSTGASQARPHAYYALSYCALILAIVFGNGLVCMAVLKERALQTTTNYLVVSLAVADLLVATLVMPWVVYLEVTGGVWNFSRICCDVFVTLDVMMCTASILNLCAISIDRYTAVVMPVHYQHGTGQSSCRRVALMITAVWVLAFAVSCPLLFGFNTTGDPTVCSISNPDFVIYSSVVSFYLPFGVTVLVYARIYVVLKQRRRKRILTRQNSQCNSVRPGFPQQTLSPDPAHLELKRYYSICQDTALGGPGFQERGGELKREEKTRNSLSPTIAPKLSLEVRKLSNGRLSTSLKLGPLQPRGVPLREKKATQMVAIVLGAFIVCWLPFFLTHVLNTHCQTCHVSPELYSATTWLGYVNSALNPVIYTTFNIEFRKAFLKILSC

Going from `CCCN[C@@H]1CCc2c(OC)cccc2[C@@H]1C` [CAS_85379-09-5] to `CCCN(CCC)C1C=Cc2c(OC)cccc2C1C` (configuration not stated) [CAS_5311190], the pKi rises from 6.86 to 7.96 (1.10 log units). The second binds more tightly here.

Going from `NC(=O)C1(N2CCCCC2)CCN(CCCN2c3ccccc3CCc3ccccc32)CC1` [CAS_5942-95-0] to `CN1CCN(CCCN2c3ccccc3Sc3ccc(S(=O)(=O)N(C)C)cc32)CC1` [NSC_92178], the pKi rises from 7.82 to 8.92 (1.10 log units). The second binds more tightly here.

Going from `CCS(=O)(=O)c1cc(C(=O)NCC2CCCN2CC2CC2)c(OC)cc1I` (configuration not stated) [NSC_122245] to `CN(C)S(=O)(=O)c1ccc2c(c1)N(CCCN1CCC(CCO)CC1)c1ccccc1S2` [CAS_39860-99-6], the pKi rises from 8.89 to 9.55 (0.66 log units).

In the case of `Nc1nc2c(ncn2[C@@H]2O[C@H](COP(=O)(O)OP(=O)(O)NP(=O)(O)O)[C@@H](O)[C@H]2O)c(=O)[nH]1` [Guanylyl imidodiphosphate], the pKi was 7.47.
